Reference: patent publication US10167262B2, “Herbicidal substituted 3-arylpyrazoles” (FMC CORPORATION, priority 2014, dated 2019)

Legend:
Format in all cases: in vivo
[1] = tested on: velvetleaf (Abutilon theophrasti); experiment: Test C pre-/postemergence greenhouse test, plant response rating 0-100
Method in brief: (§1)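 Plants were treated either at seeding (soil of loam and sand) or as 2–18 cm seedlings in a sphagnum peat mix, using test chemicals in a surfactant-containing non-phytotoxic solvent. Visual assessment relative to controls followed 13–15 days later.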

[2] = tested on: ragweed (common ragweed, Ambrosia elatior); experiment: as above;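 further: 0 is no effect and 100 is complete control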
Method in brief: as §1

[3] = tested on: morningglory (Ipomoea coccinea); experiment: as above
Method in brief: as §1

[4] = tested on: galium (catchweed bedstraw, Galium aparine); experiment: as above
Method in brief: as §1

[5] = tested on: Italian ryegrass (Lolium multiflorum); experiment: as above
Method in brief: as §1

[6] = tested on: velvetleaf (Abutilon theophrasti); experiment: Test A pre-/postemergence greenhouse herbicide test, visual injury rating 0-100; conditions: 1000 g ai/ha
Method in brief: (§2)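 Seeds sown in loam soil–sand blend; preemergence directed soil spray and, simultaneously, postemergence spray on plants 2 to 10 cm tall at one- to two-leaf stage. Compounds formulated in non-phytotoxic solvent mixture with surfactant. Injury rated visually versus untreated controls after ~10 days in greenhouse.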

corn (Zea mays) = experiment: as above; conditions: 1000 g ai/ha
Method in brief: as §2

[7] = tested on: pigweed (Amaranthus retroflexus); experiment: as above; conditions: 1000 g ai/ha
Method in brief: as §2

[8] = tested on: large (Lg) crabgrass (Digitaria sanguinalis); experiment: as above; conditions: 1000 g ai/ha
Method in brief: as §2

[9] = tested on: morningglory (Ipomoea spp.); experiment: as above; conditions: 1000 g ai/ha
Method in brief: as §2

[10] = tested on: barnyardgrass (Echinochloa crus-galli); experiment: as above; conditions: 1000 g ai/ha
Method in brief: as §2

[11] = tested on: wheat (Triticum aestivum); experiment: as above; conditions: 1000 g ai/ha
Method in brief: as §2

[12] = tested on: giant foxtail (Setaria faberii); experiment: as above; conditions: 1000 g ai/ha
Method in brief: as §2

[13] = Postemergence, 250 g ai/ha, scale 0 to 100

O=C(c1cncc(F)c1)c1c[nH]nc1-c1cc(Cl)cc(Cl)c1 [Compound 19]
Plant response rating (0 to 100), Velvetleaf ([1]; Postemergence, 62 g ai/ha): 25
Plant response rating (0 to 100), Velvetleaf ([1]; Postemergence, 125 g ai/ha): 40
Plant response rating, Velvetleaf [1, 13]: 55
Plant response rating, Velvetleaf ([1]; Preemergence, 62 g ai/ha): 40
Plant response rating, Velvetleaf ([1]; Preemergence, 125 g ai/ha): 75
Plant response rating, Velvetleaf ([1]; Preemergence, 250 g ai/ha): 98
Plant response rating (0 to 100), Ragweed ([2]; Postemergence, 62 g ai/ha): 70
Plant response rating (0 to 100), Ragweed ([2]; Postemergence, 125 g ai/ha): 80
Plant response rating, Ragweed [2, 13]: 90
Plant response rating, Ragweed ([2]; Preemergence, 62 g ai/ha): 85
Plant response rating, Ragweed ([2]; Preemergence, 125 g ai/ha): 100
Plant response rating, Ragweed ([2]; Preemergence, 250 g ai/ha): 100
Plant response rating (0 to 100), Morningglory ([3]; Postemergence, 62 g ai/ha): 0
Plant response rating (0 to 100), Morningglory ([3]; Postemergence, 125 g ai/ha): 0
Plant response rating, Morningglory [3, 13]: 0
Plant response rating, Morningglory ([3]; Preemergence, 31 g ai/ha): 0
Plant response rating, Morningglory ([3]; Preemergence, 62 g ai/ha): 0
Plant response rating, Morningglory ([3]; Preemergence, 125 g ai/ha): 0
Plant response rating, Morningglory ([3]; Preemergence, 250 g ai/ha): 10
Plant response rating (0 to 100), Galium ([4]; Postemergence, 31 g ai/ha): 15
Plant response rating (0 to 100), Galium ([4]; Postemergence, 62 g ai/ha): 40
Plant response rating (0 to 100), Galium ([4]; Postemergence, 125 g ai/ha): 40
Plant response rating, Galium [4, 13]: 45
Plant response rating, Galium ([4]; Preemergence, 31 g ai/ha): 0
Plant response rating, Galium ([4]; Preemergence, 62 g ai/ha): 80
Plant response rating, Galium ([4]; Preemergence, 125 g ai/ha): 95
Plant response rating, Galium ([4]; Preemergence, 250 g ai/ha): 100
Plant response rating (0 to 100), Ryegrass, Italian ([5]; Postemergence, 62 g ai/ha): 0
Plant response rating (0 to 100), Ryegrass, Italian ([5]; Postemergence, 125 g ai/ha): 0
Plant response rating, Ryegrass, Italian [5, 13]: 5
Plant response rating, Ryegrass, Italian ([5]; Preemergence, 62 g ai/ha): 0
Plant response rating, Ryegrass, Italian ([5]; Preemergence, 125 g ai/ha): 0
Plant response rating, Ryegrass, Italian ([5]; Preemergence, 250 g ai/ha): 10
Plant response rating (0 to 100 scale), Velvetleaf ([6]; Postemergence): 100
Plant response rating (0 to 100 scale), Velvetleaf ([6]; Preemergence): 90
Plant response rating (0 to 100 scale), Corn (corn (Zea mays); Postemergence): 0
Plant response rating (0 to 100 scale), Corn (corn (Zea mays); Preemergence): 0
Plant response rating (0 to 100 scale), Pigweed ([7]; Postemergence): 100
Plant response rating (0 to 100 scale), Pigweed ([7]; Preemergence): 100
Plant response rating (0 to 100 scale), Crabgrass, Large ([8]; Postemergence): 0
Plant response rating (0 to 100 scale), Crabgrass, Large ([8]; Preemergence): 0
Plant response rating (0 to 100 scale), Morningglory ([9]; Postemergence): 0
Plant response rating (0 to 100 scale), Morningglory ([9]; Preemergence): 0
Plant response rating (0 to 100 scale), Barnyardgrass ([10]; Postemergence): 0
Plant response rating (0 to 100 scale), Barnyardgrass ([10]; Preemergence): 0
Plant response rating (0 to 100 scale), Wheat ([11]; Postemergence): 0
Plant response rating (0 to 100 scale), Wheat ([11]; Preemergence): 0
Plant response rating (0 to 100 scale), Foxtail, Giant ([12]; Postemergence): 0
Plant response rating (0 to 100 scale), Foxtail, Giant ([12]; Preemergence): 0
